PubChem BioAssay (NCI)
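Compound exposure: 48 hours, 5 concentrations, 96-well plates. At the GI50, growth is halved. TGI denotes the concentration required for complete inhibition of growth.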

How the values were obtained:
Assay in all cases: NCI anticancer screen, dose series, 48 h
[1] = system: ACHN renal
[2] = system: HCT-116 colon
[3] = system: CAKI-1 renal
[4] = system: UO-31 renal
[5] = system: K-562 leukemia
[6] = system: NCI-H460 lung
[7] = system: UACC-62 melanoma
[8] = system: HOP-92 NSCLC
[9] = system: KM12 colon
[10] = system: M14 melanoma
[11] = system: SK-MEL-28 melanoma
[12] = system: HL-60(TB) leukemia
[13] = system: IGROV1 ovarian
[14] = system: A549 NSCLC
[15] = system: OVCAR-3 ovarian
[16] = system: NCI/ADR-RES ovarian
[17] = system: SN12C renal
[18] = system: U251 CNS
[19] = system: T-47D breast
[20] = system: SF-539 CNS
[21] = system: OVCAR-5 ovarian
[22] = system: MCF7 breast
[23] = system: OVCAR-4 ovarian
[24] = system: NCI-H226 lung
[25] = system: NCI-H23 lung
[26] = system: SNB-19 CNS
[27] = system: TK-10 renal
[28] = system: SK-MEL-5 melanoma
[29] = system: 786-0 renal

Question: How did the TGI [1] turn out when `COc1ccsc1/C=N/NC(=O)c1[nH]c2ccc(Br)cc2c1-c1ccccc1` was run?
Answer: 20700 nM

Question: And the GI50 [2]?
Answer: 369 nM

Question: And the TGI [2]?
Answer: 5510 nM

Question: What about the GI50 [3] of the same compound?
Answer: 464 nM

Question: What about the TGI [3] of the same compound?
Answer: > 56600 nM

Question: What about the GI50 [4] of the same compound?
Answer: 579 nM

Question: What about the TGI [4] of the same compound?
Answer: 34800 nM

Question: And the GI50 [5]?
Answer: 282 nM

Question: What about the TGI [5] of the same compound?
Answer: > 55700 nM

Question: And the GI50 [6]?
Answer: 362 nM

Question: What about the TGI [6] of the same compound?
Answer: 11000 nM

Question: What about the GI50 [7] of the same compound?
Answer: 306 nM

Question: And the TGI [7]?
Answer: 17500 nM

Question: And the GI50 [8]?
Answer: 4060 nM

Question: And the TGI [8]?
Answer: 29300 nM

Question: And the GI50 [9]?
Answer: 428 nM

Question: What about the TGI [9] of the same compound?
Answer: 13800 nM

Question: And the GI50 [10]?
Answer: 316 nM

Question: And the TGI [10]?
Answer: 13700 nM

Question: And the GI50 [11]?
Answer: 925 nM

Question: What about the TGI [11] of the same compound?
Answer: 40800 nM

Question: What about the GI50 [12] of the same compound?
Answer: 223 nM

Question: What about the TGI [12] of the same compound?
Answer: 605 nM

Question: And the GI50 [13]?
Answer: 582 nM

Question: What about the TGI [13] of the same compound?
Answer: 20500 nM

Question: And the GI50 [14]?
Answer: 634 nM

Question: And the TGI [14]?
Answer: > 54200 nM

Question: And the GI50 [15]?
Answer: 407 nM

Question: And the TGI [15]?
Answer: 15300 nM

Question: And the GI50 [16]?
Answer: 268 nM

Question: And the TGI [16]?
Answer: 739 nM

Question: And the GI50 [17]?
Answer: 517 nM

Question: And the TGI [17]?
Answer: 8110 nM

Question: And the GI50 [18]?
Answer: 410 nM

Question: What about the TGI [18] of the same compound?
Answer: 20500 nM

Question: And the GI50 [19]?
Answer: 449 nM

Question: What about the TGI [19] of the same compound?
Answer: 25700 nM

Question: And the GI50 [20]?
Answer: 233 nM

Question: What about the TGI [20] of the same compound?
Answer: 584 nM

Question: What about the GI50 [21] of the same compound?
Answer: 513 nM

Question: What about the TGI [21] of the same compound?
Answer: 68200 nM

Question: What about the GI50 [22] of the same compound?
Answer: 332 nM

Question: What about the TGI [22] of the same compound?
Answer: 16500 nM

Question: What about the GI50 [23] of the same compound?
Answer: 6340 nM

Question: What about the TGI [23] of the same compound?
Answer: > 100000 nM

Question: And the GI50 [24]?
Answer: 934 nM

Question: And the TGI [24]?
Answer: 9950 nM

Question: What about the GI50 [25] of the same compound?
Answer: 568 nM

Question: And the TGI [25]?
Answer: 25200 nM

Question: What about the GI50 [26] of the same compound?
Answer: 511 nM

Question: What about the TGI [26] of the same compound?
Answer: > 100000 nM

Question: What about the GI50 [27] of the same compound?
Answer: 7010 nM

Question: And the TGI [27]?
Answer: 63900 nM

Question: What about the GI50 [28] of the same compound?
Answer: 315 nM

Question: And the TGI [28]?
Answer: 1150 nM

Question: What about the GI50 [29] of the same compound?
Answer: 563 nM

Question: What about the TGI [29] of the same compound?
Answer: 12600 nM
